{"source": "patent US9861094B2", "about": "“Composition and method for tissue preservation and embalming” (OGF, priority 2008, dated 2018)", "key": {"bodies for dissection": {"tested_on": "bodies for dissection", "experiment": "embalming of bodies for dissection (injection alone, no tapping)", "parameters": "species or system human", "details": "bronopol 1% by weight, 4 liters injected; dissections 14 and 16 days after death", "procedure": "In this type of procedure, no liquid tapping or cavity injection is carried out.\n1. Tests were also carried out within the faculty of medicine in the context of the preservation of bodies for dissection.\nThe results observed are very interesting, knowing that these tests were carried out by injection alone with no tapping.\nTo obtain optimum preservation of the body, a bronopol concentration of 1% by weight was used for a total injected quantity of 4 liters.\nFor example, the above-mentioned composition (2) was used on a subject of average build (a person who had been dead for eight days).\nBefore the test was performed, very marked lividities, large green abdominal marks and sunken eyes (the body had been frozen) were observed.\nThe product was then injected through the carotid artery in one pass (one times 3.6 liters of water and 400 ml of the above-mentioned composition (2)), for better product dilution (injection total=4 liters) (bronopol concentration=1%).\nThe subject was moved alternately between the cold storage room (7° C.) and the autopsy table (25° C.)."}, "bodies of the deceased": {"tested_on": "bodies of the deceased", "experiment": "embalming tests for presentation of the deceased (arterial and cavity injection)", "parameters": "species or system human", "details": "0.6% bronopol; bodies with no particular abnormality", "procedure": "For arterial injection, the following compositions were prepared and tested (these compositions are prepared for 1 liter of concentrated solution to which 5 liters of water are added):\nThis operation uses the method generally used for embalming procedures, namely injection and drainage, said drainage being generally performed in the region of the right heart.\nInjection is carried out through the femoral, carotid or axillary arteries.\nThe amount of fluid injected is approximately 6 liters, but this amount may vary depending on the state of the deceased and the diagnosis made by the embalmer, for example the need for more drainage.\nFor cavity injection, the following compositions were prepared and tested (these compositions are prepared for 500 ml and used as they are):\nThis operation uses the method widely practised in embalming procedures, that is, gas and fluid tapping in the region of the thoracic and abdominal cavities, and injection of the composition according to the invention into each of the cavities so that said composition is diffused optimally throughout the cavities concerned.\nStill using an identical base of glycerine, ethanol or methanol, tests were carried out using the compositions described in the examples above (compositions (1), (2), (3) and (3a) for arterial injection and compositions (4) and (5) for cavity injection)."}, "[1]": {"tested_on": "bacteria in the body fluid", "experiment": "bacteriological analyses of body fluid after embalming", "from_the_text": "The results obtained according to the bronopol concentration were as follows:"}}, "data": [{"smiles": "O=[N+]([O-])C(Br)(CO)CO", "note": "[Bronopol, 2-bromo-2-nitropropane-1,3-diol]", "values": [{"measurement": "odour", "setting": "bodies for dissection", "value": "lack of odour"}, {"measurement": "state of preservation of the body and tissue suppleness", "setting": "bodies for dissection", "value": "very good results"}, {"measurement": "overall result of embalming tests", "setting": "bodies of the deceased", "value": "satisfactory results"}, {"measurement": "Presence of bacteria in the body fluid", "setting": "[1]; Bronopol concentration 0.90%", "value": "1 out of 2 cases with bacteria"}, {"measurement": "Presence of bacteria in the body fluid", "setting": "[1]; Bronopol concentration ≦0.80%", "value": "7 out of 8 cases with bacteria"}, {"measurement": "Presence of bacteria in the body fluid", "setting": "[1]; Bronopol concentration ≧1.2%", "value": "1 out of 3 cases with bacteria"}]}]}
